Results: ChEMBL document CHEMBL1157821, “In vitro photodynamic therapy and quantitative structure-activity relationship studies with stable synthetic near-infrared-absorbing bacteriochlorin photosensitizers” (J Med Chem, 2010)

Tested on: HeLa
Assay: Photocytotoxicity against human HeLa cells assessed as survival-fraction per unit uptake measured as concentration in incubation medium necessary to produce cell uptake of 0.3 nmol per mg of protein at which survival fraction was determined after 24 hrs in presence of 10 J/cm2 light
Type: functional

| SMILES | survival fraction |
| --- | --- |
| CC1(C)Cc2cc3[nH]c(cc4nc(cc5[nH]c(cc1n2)cc5C(=O)O)CC4(C)C)cc3C(=O)O | 0.35 |
| CC1(C)Cc2cc3[nH]c(cc4nc(cc5[nH]c(cc1n2)cc5C(=O)NCCN)CC4(C)C)cc3C(=O)NCCN | 0.88 |
| CC1(C)Cc2cc3[nH]c(cc4nc(cc5[nH]c(cc1n2)cc5CN(CCO)CCO)CC4(C)C)cc3CN(CCO)CCO | 0.04 |
| COCCOCCOCCOCCNCc1cc(CNCCOCCOCCOCCOC)cc(-c2c3nc(cc4[nH]c(cc4-c4ccc(C)cc4)c(OC)c4nc(cc5[nH]c2cc5-c2ccc(C)cc2)C(C)(C)C4)C(C)(C)C3)c1 | 0.1 |
| CC1(C)Cc2cc3[nH]c(cc4nc(cc5[nH]c(cc1n2)cc5-c1cc(OCCO)cc(OCCO)c1)CC4(C)C)cc3-c1cc(OCCO)cc(OCCO)c1 | 0.001 |
| CC1(C)Cc2cc3[nH]c(cc4nc(cc5[nH]c(cc1n2)cc5-c1cc(O)cc(O)c1)CC4(C)C)cc3-c1cc(O)cc(O)c1 | 0.01 |
| CC1(C)Cc2cc3[nH]c(cc4nc(cc5[nH]c(cc1n2)cc5C#CC[N+](C)(C)C)CC4(C)C)cc3C#CC[N+](C)(C)C.[Cl-].[Cl-] | 0.6 |
| CC1(C)Cc2cc3[nH]c(cc4nc(cc5[nH]c(cc1n2)cc5C(=O)N(CCN)CCN)CC4(C)C)cc3C(=O)N(CCN)CCN | 0.9 |
| CC1(C)Cc2cc3[nH]c(cc4nc(cc5[nH]c(cc1n2)cc5C(=O)N1CC[N+](C)(C)CC1)CC4(C)C)cc3C(=O)N1CC[N+](C)(C)CC1.[Cl-].[Cl-] | 1 |
| CC1(C)Cc2cc3[nH]c(cc4nc(cc5[nH]c(cc1n2)cc5C(=O)/C=C/c1cc(O)cc(O)c1)CC4(C)C)cc3C(=O)/C=C/c1cc(O)cc(O)c1 | 0.23 |
| COCCN(CCOC)C(=O)c1cc2cc3nc(cc4[nH]c(cc5nc(cc1[nH]2)CC5(C)C)cc4C(=O)N(CCOC)CCOC)CC3(C)C | 0.02 |
